According to paper PMC7425875, “Identification of peptides interfering with the LRRK2/PP1 interaction” (PLoS ONE, 2020):
No end group written: not given here.

How the values were obtained:
[1] = Analysis of peptide integrity in human serum (MALDI-TOF MS); type: in vitro ADME; settings: 37°C, different periods of time, mass spectrometry
Protocol: Peptides were incubated at 37°C in 250 μl of human serum (Sigma Aldrich) for different periods of time. Samples were collected and peptide degradation stopped by freezing. Peptides were extracted from samples using the Proteo Miner Protein Enrichment System (Bio-Rad). Percentage of intact peptide was estimated by mass spectrometry (MS) using MALDI-TOFF as described previously[19] (Bruker Autoflex II) following their protocol. Measurements were performed in triplicate. MS data were analysed using the software Cliprot tools, Felx analysis, Bruker.

LRRK2/PP1 interaction = target: T1, LRRK2/PP1 interaction (Homo sapiens, UniProt P62136); assay: In vitro competition of LRRK2/PP1 interaction in anti-PP1 immunoprecipitates (western blot); type: binding; settings: 1 mM peptide, 30 min room temperature, MDA-MB231 lysates
T1 construct: MDA-MB231 cells were lysed and cytoplasmic extracts immunoprecipitated with anti-PP1 antibody (Santa Cruz); endogenous in cells; host or cells: MDA-MB231
T1 sequence (P62136 whole entry): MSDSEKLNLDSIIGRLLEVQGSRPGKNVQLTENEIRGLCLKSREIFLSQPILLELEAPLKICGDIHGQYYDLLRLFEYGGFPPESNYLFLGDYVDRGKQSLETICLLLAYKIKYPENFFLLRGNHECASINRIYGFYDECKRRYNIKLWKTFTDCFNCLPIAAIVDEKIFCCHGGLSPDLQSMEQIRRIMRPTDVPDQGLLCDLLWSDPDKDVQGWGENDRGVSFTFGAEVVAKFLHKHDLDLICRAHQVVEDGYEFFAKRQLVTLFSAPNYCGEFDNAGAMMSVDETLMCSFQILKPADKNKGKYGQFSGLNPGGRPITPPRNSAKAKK
Protocol: The protocol was previously described. Briefly, cells (5x10^6) were lysed for 20 min at 4°C in lysis buffer (50 mM Tris pH8, 1% NP40, 137 mM NaCl, 1 mM MgCl2, 1 mM CaCl2, 10% glycerol and protease inhibitor mixture Sigma Aldrich). Lysates (500 μg) were immunoprecipitated with the appropriated antibody overnight at 4°C and protein A/G Sepharose (Santa Cruz) was added for 1h at 4°C. After washing with 1x TBST (20 mM Tris-HCl pH7.5, 150 mM NaCl, 0.05% Tween 20), the PP1/LRRK2 interaction was competed using 1 mM of the Mut3DPT-LRRK2-Long or Mut3DPT-LRRK2-Shor peptide for 30 min at room temperature. After several washing steps, immunoprecipitates were separated by SDS-PAGE, transferred to nitrocellulose and blotted with anti PP1 antibody (Santa Cruz or Thermo Fisher 1:500 dilution). The membrane was washed and incubated with PO-conjugates secondary antibody (Dako, 1:1000 dilution). Protein detection was performed using the ECL system (Bio-Rad). As internal control, the blot was also hybridized with anti-LRRK2 antibody (Abcam, ab133474, 1;500 dilution). Western blots were densitometred using Image J. Statistic analysis were done using Anova.

## THRPPMWSPVWPGFWSRLINRLLEI [BBB-LRRK2-Short]
[1]
  Resistance to degradation by proteases in human serum: only very limited degradation

## THRPPMWSPVWPPMGFWSRLINRLLEISPY [BBB-LRRK2-Long]
[1]
  Resistance to degradation by proteases in human serum: only very limited degradation

## VKKKKIKAEIKI [Mut3DPT, Optimized cell penetrating peptide (shuttle alone), derived from DPT-Sh1]
LRRK2/PP1 interaction
  Competition of LRRK2/PP1 interaction (LRRK2 detected in anti-PP1 immunoprecipitates): LRRK2 was detected
